Like-named read-outs stand apart in the source and are kept apart here.
Experiments:
[1] = tested on: BGC823 cell line; experiment: MTT test of inhibiting tumor cell activity, BGC823; settings: read-out: Cytotoxic activity (IC50, μM) BGC823
Procedure: (§1) 3, cell lines: Hela, BGC823, A549 cell line and normal human hepatocytes which are available from Wu Han boster Co., Ltd.;
(§2) Hela, BGC823, A549 cell line and normal human hepatocytes in logarithmic growth phase are subjected to 1000 rpm centrifugation for 5 min, supernatant is then discarded, moderate medium is suspended, the cell concentration is adjusted to 3.5×10^4/well, the cells were seeded in 96-wells culture plate, and following experimental groups are set:
(§3) a negative control group; 22 test groups with same concentration (ie: groups of Compound (1) to Compound (22)); 2 control groups: groups of podophyllotoxin, 4′-demethylepipodophyllotoxin and etoposide.
(§4) Taking RPMI1640 containing 10% of calf serum as nutrient solution, 0.10 mL of cells per well is incubated under conditions of 37 V, 5% CO2 and saturated humidity for 24 h to nearly be covered, then the nutrient solution is discarded. […] 100 μl of DMSO is added to each well, then vibrated at 37° C. by shaker table for 30 min, then measuring absorbance (OD) at 492 nm, calculating MTT ratio=OD value of drug group/OD value of the negative control group.

[2] = tested on: Hela cell line; experiment: MTT test of inhibiting tumor cell activity, Hela; settings: read-out: Cytotoxic activity (IC50, μM) Hela
Procedure: as §1, §2, §3, §4

[3] = tested on: A549 cell line; experiment: MTT test of inhibiting tumor cell activity, A549; settings: read-out: Cytotoxic activity (IC50, μM) A549
Procedure: as §1, §2, §3, §4

[4] = tested on: BGC823 cell line
Procedure: as §1, §2, §3, §4

[5] = tested on: A549 cell line
Procedure: as §1, §2, §3, §4

[6] = tested on: Hela cell line
Procedure: as §1, §2, §3, §4

[7] = BGC823 cells, MTT, 48 h cultivation
[8] = Hela cells, MTT, 48 h cultivation
[9] = A549 cells, MTT, 48 h cultivation

4-N—(N,N-dimethylamino metanil)-4-deoxy-podophyllotoxin [Compound 15]
IC50 [1, 7]: 2.59 ± 0.21 µM
IC50 [2, 8]: 1.33 ± 0.2 µM
IC50 [3, 9]: > 100 µM

COc1cc(C2c3cc4c(cc3C(O)C3COC(=O)C23)OCO4)cc(OC)c1O (stereo not drawn) [4′-demethylepipodophyllotoxin, reference compound]
IC50 [1, 7]: 63 µM
IC50 [2, 8]: 49 µM
IC50 [3, 9]: 52 µM

COc1cc(C2c3cc4c(cc3C(Nc3ccc(Cl)c(C)c3)C3COC(=O)C23)OCO4)cc(OC)c1OC (stereo not drawn) [Compound 1, 4-N-(4-chloro-3-methylaniline)-4-deoxy-podophyllotoxin]
IC50 [4]: 620 ± 130 nM
IC50 [5]: 1750 ± 830 nM
IC50 [6]: 1260 ± 370 nM

COc1ccc(NC2c3cc4c(cc3C(c3cc(OC)c(OC)c(OC)c3)C3C(=O)OCC23)OCO4)cc1F (stereo not drawn) [Compound 3, 4-N-(3-fluoro-4-methoxyaniline)-4-deoxy-podophyllotoxin]
IC50 [1, 7]: 3.16 ± 1.11 µM
IC50 [2, 8]: 2.57 ± 0.87 µM
IC50 [3, 9]: 1.97 ± 0.32 µM

COc1ccc(NC2c3cc4c(cc3C(c3cc(OC)c(O)c(OC)c3)C3C(=O)OCC23)OCO4)cc1F (stereo not drawn) [Compound 4, 4-N-(3-fluoro-4-methoxyaniline)-4-deoxy-4′-demethylepipodophyllotoxin]
IC50 [1, 7]: 0.4 ± 0.17 µM
IC50 [2, 8]: 1.97 ± 0.16 µM
IC50 [3, 9]: 3.04 ± 0.23 µM

COc1cc(C2c3cc4c(cc3C(Nc3ccc(Cc5ccc(N)cc5)cc3)C3COC(=O)C23)OCO4)cc(OC)c1OC (stereo not drawn) [Compound 5, 4-N-(4,4′-diaminodiphenylmethane)-4-deoxy-podophyllotoxin]
IC50 [1, 7]: 17.2 ± 0.34 µM
IC50 [2, 8]: 7.07 ± 1.63 µM
IC50 [3, 9]: 2.32 ± 0.06 µM

COc1cc(C2c3cc4c(cc3C(Nc3ccc(Cc5ccc(N)cc5)cc3)C3COC(=O)C23)OCO4)cc(OC)c1O (stereo not drawn) [Compound 6, 4-N-(4,4′-diaminodiphenylmethane)-4-deoxy-4′-demethylepipodophyllotoxin]
IC50 [1, 7]: 3.52 ± 0.43 µM
IC50 [2, 8]: 0.56 ± 0.17 µM
IC50 [3, 9]: 2.2 ± 0.25 µM

COc1ccccc1NC1c2cc3c(cc2C(c2cc(OC)c(OC)c(OC)c2)C2C(=O)OCC12)OCO3 (stereo not drawn) [Compound 7, 4-N-(o-aminoanisole)-4-deoxy-podophyllotoxin]
IC50 [1, 7]: 6.26 ± 0.36 µM
IC50 [2, 8]: 13.4 ± 3.31 µM
IC50 [3, 9]: 3.41 ± 0.1 µM

COc1ccccc1NC1c2cc3c(cc2C(c2cc(OC)c(O)c(OC)c2)C2C(=O)OCC12)OCO3 (stereo not drawn) [Compound 8, 4-N-(o-aminoanisole)-4-deoxy-4′-demethylepipodophyllotoxin]
IC50 [1, 7]: 5.63 ± 1.2 µM
IC50 [2, 8]: 1.72 ± 0.3 µM
IC50 [3, 9]: 15.3 ± 0.45 µM

COc1ccc(Cl)cc1NC1c2cc3c(cc2C(c2cc(OC)c(OC)c(OC)c2)C2C(=O)OCC12)OCO3 (stereo not drawn) [Compound 9, 4-N-(4-chloro-2-aminoanisole)-4-deoxy-podophyllotoxin]
IC50 [1, 7]: 1.24 ± 0.06 µM
IC50 [2, 8]: 8.07 ± 1.81 µM
IC50 [3, 9]: 1.71 ± 0.26 µM

COc1ccc(Cl)cc1NC1c2cc3c(cc2C(c2cc(OC)c(O)c(OC)c2)C2C(=O)OCC12)OCO3 (stereo not drawn) [Compound 10, 4-N-(4-chloro-2-aminoanisole)-4-deoxy-4′-demethylepipodophyllotoxin]
IC50 [1, 7]: 1.61 ± 0.37 µM
IC50 [2, 8]: 1.35 ± 0.18 µM
IC50 [3, 9]: 3.72 ± 0.41 µM

COc1cc(C2c3cc4c(cc3C(Nc3ccccc3C#N)C3COC(=O)C23)OCO4)cc(OC)c1OC (stereo not drawn) [Compound 11, 4-N-(o-aminobenzonitrile)-4-deoxy-podophyllotoxin]
IC50 [1, 7]: > 100 µM
IC50 [2, 8]: 16.9 ± 1.48 µM
IC50 [3, 9]: 1.02 ± 0.07 µM

COc1cc(C2c3cc4c(cc3C(Nc3ccccc3C#N)C3COC(=O)C23)OCO4)cc(OC)c1O (stereo not drawn) [Compound 12, 4-N-(o-aminobenzonitrile)-4-deoxy-4′-demethylepipodophyllotoxin]
IC50 [1, 7]: 7.91 ± 0.59 µM
IC50 [2, 8]: 1.92 ± 1.21 µM
IC50 [3, 9]: 11.6 ± 1.63 µM

COc1cc(C2c3cc4c(cc3C(Nc3cc(Cl)c(O)c(Cl)c3)C3COC(=O)C23)OCO4)cc(OC)c1OC (stereo not drawn) [Compound 13, 4-N-(2,6-dichloro-4-aminophenol)-4-deoxy-podophyllotoxin]
IC50 [1, 7]: 1.58 ± 0.16 µM
IC50 [2, 8]: 17.6 ± 2.39 µM
IC50 [3, 9]: 9.66 ± 0.35 µM

COc1cc(C2c3cc4c(cc3C(Nc3cc(Cl)c(O)c(Cl)c3)C3COC(=O)C23)OCO4)cc(OC)c1O (stereo not drawn) [Compound 14, 4-N-(2,6-dichloro-4-aminophenol)-4-deoxy-4′-demethylepipodophyllotoxin]
IC50 [1, 7]: 13.8 ± 1.42 µM
IC50 [2, 8]: 14.7 ± 0.42 µM
IC50 [3, 9]: 9.41 ± 0.59 µM

COc1cc(C2c3cc4c(cc3C(Nc3cccc(S(=O)(=O)N(C)C)c3)C3COC(=O)C23)OCO4)cc(OC)c1O (stereo not drawn) [Compound 16, 4-N—(N,N-dimethylaminometanil)-4-deoxy-4′-demethylepipodophyllotoxin]
IC50 [1, 7]: 1.52 ± 0.39 µM
IC50 [2, 8]: 1.06 ± 0.57 µM
IC50 [3, 9]: 2.08 ± 0.26 µM

CCc1ccc([N+](=O)[O-])cc1NC1c2cc3c(cc2C(c2cc(OC)c(OC)c(OC)c2)C2C(=O)OCC12)OCO3 (stereo not drawn) [Compound 17, 4-N-(2-ethyl-5-nitroaniline)-4-deoxy-podophyllotoxin]
IC50 [1, 7]: 4.24 ± 0.79 µM
IC50 [2, 8]: 6.01 ± 0.71 µM
IC50 [3, 9]: 1.4 ± 0.28 µM

COc1cc(C2c3cc4c(cc3C(Nc3ccccc3Sc3ccccc3N)C3COC(=O)C23)OCO4)cc(OC)c1OC (stereo not drawn) [Compound 19, 4-N-(2 2′-diaminodiphenylsulfide)-4-deoxy-podophyllotoxin]
IC50 [1, 7]: 6.46 ± 0.33 µM
IC50 [2, 8]: 2.14 ± 0.21 µM
IC50 [3, 9]: 23.2 ± 0.72 µM

COc1cc(C2c3cc4c(cc3C(Nc3ccccc3Sc3ccccc3N)C3COC(=O)C23)OCO4)cc(OC)c1O (stereo not drawn) [Compound 20, 4-N-(2 2′-diaminodiphenylsulfide)-4-deoxy-4′-demethylepipodophyllotoxin]
IC50 [1, 7]: 2.17 ± 0.23 µM
IC50 [2, 8]: 16.3 ± 0.39 µM
IC50 [3, 9]: 1.42 ± 0.12 µM

COc1cc(C2c3cc4c(cc3C(Nc3ccccc3C(F)(F)F)C3COC(=O)C23)OCO4)cc(OC)c1OC (stereo not drawn) [Compound 21, 4-N-(2-aminobenzotrifluoride)-4-deoxy-podophyllotoxin]
IC50 [1, 7]: 23.2 ± 0.76 µM
IC50 [2, 8]: 2.45 ± 3.04 µM
IC50 [3, 9]: 2.11 ± 0.05 µM

COc1cc(C2c3cc4c(cc3C(Nc3ccccc3C(F)(F)F)C3COC(=O)C23)OCO4)cc(OC)c1O (stereo not drawn) [Compound 22, 4-N-(2-aminobenzotrifluoride)-4-deoxy-4′-demethylepipodophyllotoxin]
IC50 [1, 7]: 6.01 ± 0.12 µM
IC50 [2, 8]: 5.89 ± 0.48 µM
IC50 [3, 9]: 9.72 ± 0.98 µM

COc1cc([C@@H]2c3cc4c(cc3[C@@H](O[C@@H]3O[C@@H]5CO[C@@H](C)O[C@H]5[C@H](O)[C@H]3O)[C@H]3COC(=O)[C@H]23)OCO4)cc(OC)c1O [VP-16, etoposide, reference compound]
IC50 [1, 7]: 22.3 ± 2.97 µM
IC50 [2, 8]: 13.2 ± 1.65 µM
IC50 [3, 9]: 31.1 ± 1.72 µM

COc1cc([C@@H]2c3cc4c(cc3[C@H](O)[C@H]3COC(=O)[C@H]23)OCO4)cc(OC)c1OC [podophyllotoxin, reference compound]
IC50 ([1]; Homo sapiens, BGC-823, 48 h): 75 µM
IC50 ([2]; Homo sapiens, HeLa, 48 h): 55 µM
IC50 ([3]; Homo sapiens, A549, 48 h): 67 µM
